The test system of this experiment is transformed human airway epithelial cells (CFT1-LCFSN line). The experiment in a line: Inhibition of internalization of P. aeruginosa strain PAO1 into CFT1-LCFSN cells (bacterial ingestion assay). Format: cell-based. Particulars: for mean cfu P. aeruginosa internalized (standard deviation): strain PAO1, CFT1-LCFSN cells. The source says: Cell lines. CFT1-LCFSN cells, carrying a retrovirally introduced chromosomal copy of the wild-type human CFTR gene were kindly provided by J. Olsen, J. Yankaskis and L. Johnson from The University of North Carolina, Chapel Hill, N.C.. The cell line parental to CFT1-LCFSN is designated CFT1; it is a line of human papilloma virus 18 E6/E7 transformed bronchial epithelial cells derived from a CF patient homozygous for ΔF508 CFTR. The CFT1-LCFSN cells have normal chloride ion conductance. CFT1-ΔF508 cells are derived from CFT1 cells and carry a cDNA introduced by a retrovirus vector that encodes the ΔF508 mutant form of CFTR. Cells were grown in supplemented F-12 medium as described in 5% CO2 at 37° C.
Bacterial strains. P. aeruginosa strains used include PAO1, a well-characterized laboratory strain, and strains 149 and 324, non-mucoid, LPS-smooth clinical isolates of P. aeruginosa from CF patients early in the course of infection. Fresh cultures of P. aeruginosa grown overnight at 37° C. on a tryptic soy agar plate were suspended in supplemented medium to prepare the bacterial inoculum. Approximately 10^6 cfu of the bacterial inoculum were added per well of 10^5, epithelial cells.
Reagents for inhibition of ingestion assays. Membranes were prepared from C127 cells as described by O'Riordan et al.. Membranes were suspended in 150 mM NaCl, 50 mM Tris, pH 7.5 and 1 mM EDTA and added at the indicated concentration to suspensions of P. aeruginosa strains prior to adding this mixture to CFT1-LCFSN cells to measure bacterial uptake. Membranes from CEM/VbI cells expressing P-glycoprotein and membranes from control CEM cells lacking P-glycoprotein were obtained from James Croop of Harvard Medical School. Purified (˜85%) recombinant CFTR was obtained from Genzyme Corp., and prepared as described. The protein was solubilized in 100 mM NaCl, 10 mM Tris, pH 8.0, 2 mM di-thio-threitol and 0.1% sodium dodecyl sulfate. Monoclonal antibodies raised to synthetic peptides corresponding to the first (MAb CF3) and fourth (MAb CF4) predicted extracellular domains of CFTR, as well as a MAb specific to a peptide representing the carboxy-terminal 14 amino acids of mature CFTR (MAb CF2) were provided by Dr. George Banting, University of Bristol, Bristol, UK [12]. Synthetic peptides were obtained from Chiron Mimetopes, San Diego, Calif. Peptide […] (15 amino acids) (SEQ.ID.NO. 3) represents amino acids 103-117 of mature CFTR, peptide […] (31 amino acids) (SEQ.ID.NO. 4) represents amino acids 881-911 of mature CFTR. Peptides were made up as a stock solution in F-12 medium containing 1 μM/μl based on the purity reported by the manufacturer. Peptides were diluted in F-12 tissue culture medium prior to use in assays.
Bacterial ingestion assay. Cells were released from monolayers in tissue culture flasks by 5 min. of incubation with trypsin-versene mixture (BioWhitaker, Walkersville, Md.), washed, counted and seeded into 96-well tissue culture plates at 10^5 cells/well in supplemented F-12 medium and incubated at 37° C. in 5% CO2. Fresh cultures of P. aeruginosa grown overnight at 37° C. on a tryptic soy agar plate were suspended in supplemented F-12 medium to prepare the bacterial inoculum. Then 10^6 colony forming units (cfu) of the bacterial inoculum were added per well of 10^5 epithelial cells. Bacteria were allowed to invade the epithelial cells for 3 to 4 hours at 37° C., after which nonadherent bacteria were removed by washing. The remaining steps of the assay and the steps involved in the controls have previously been described. Three to 9 replicates were obtained per point, and analyzed using analysis of variance (ANOVA) and the Fisher PLSD statistic to determine pairwise differences. […]

Marks after values point to notes of the source that are not given here.

With “CFTR: purified (~85%) recombinant CFTR obtained from Genzyme Corp.”, under “CFT1-LCFSN cells, nanogram quantities of CFTR”, the “inhibition of bacterial ingestion (in words)” value is given as “significant inhibition of bacterial ingestion”. For the same substance, the “mean cfu P. aeruginosa internalized (standard deviation)” value is 1.05 × 10^5 (2.5 × 10^4) cfu (9.7 μg protein/ml), 8.55 × 10^4 (1.15 × 10^4) cfu (78 μg protein/ml), 4.9 × 10^4 (1.25 × 10^4)^a cfu (625 μg protein/ml) and 1.65 × 10^4 (1.05 × 10^4)^a cfu (5000 μg protein/ml).

The record behind these values is US6825178B1, “Methods and products for treating pseudomonas infection” (The Brigham and Women's Hospital, Inc., priority 1996, dated 2004).
